Series [1] addresses T1, human orexin-2 receptor (OX2R) (Homo sapiens, UniProt O43614).
T1 construct: expressed in transfected cells
T1 sequence (O43614 1-444): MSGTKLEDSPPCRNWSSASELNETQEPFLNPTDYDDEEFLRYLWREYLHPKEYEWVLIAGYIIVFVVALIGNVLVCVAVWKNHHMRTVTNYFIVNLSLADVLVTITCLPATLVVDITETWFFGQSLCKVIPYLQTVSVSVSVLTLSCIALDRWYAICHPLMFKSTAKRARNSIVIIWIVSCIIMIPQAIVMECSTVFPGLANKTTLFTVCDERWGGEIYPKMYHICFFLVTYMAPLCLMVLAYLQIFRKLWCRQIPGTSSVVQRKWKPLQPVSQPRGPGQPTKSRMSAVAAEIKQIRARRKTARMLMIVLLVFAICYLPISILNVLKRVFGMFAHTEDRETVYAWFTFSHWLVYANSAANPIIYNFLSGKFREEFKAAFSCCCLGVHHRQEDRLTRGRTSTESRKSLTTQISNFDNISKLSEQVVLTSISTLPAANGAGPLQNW
In words: Human OX2R IP1 assay. It is filed as cell-based. The following applies: T-Rex CHO cells stably overexpressing human OX2R; IP1 accumulation; 1 hr at 37 degrees C; mean EC50. The gist of the method: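 T-Rex CHO cells stably expressing human OX2R, doxycycline-induced (1 μg/mL) overnight, treated with compounds 1 h at 37 °C in pH 7.4 buffer with 50 mM LiCl. IP1 accumulation read by HTRF competitive immunoassay after 1 h at room temperature; agonist EC50 reported as mean ± S.E.M.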

Series [2] in a line: Hepatocytes stability assay (human hepatocytes). Format: in vitro ADME. The following applies: both sexes, human, cryopreserved hepatocytes, cryopreserved human hepatocytes (pool of 50 mixed gender); 1 μM test compound; 1×10^6 cell/mL; 37 degrees C; read-out: CLint (μL/min/million cells). In a few lines:
(§1)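 Compound at 1 μM (0.1% DMSO) was incubated with cryopreserved pooled human hepatocytes, 1×10^6 cells/mL in Krebs-Henseleit buffer, at 37 °C, sampled up to 240 min. Parent depletion by LC-MS/MS; half-life from first-order decay gave CLint, scaled to hepatic clearance by well-stirred model (fu assumed 1) and extraction ratio.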

In series [3] the test system is human hepatocytes. In words: Hepatocytes stability assay (human hepatocytes). Format: in vitro ADME. The settings on record: human hepatocytes; scaled hepatic clearance divided by liver blood flow (well-stirred model, fu assumed unity). The gist of the method: as §1

The results in this text go back to US12006330B2, “Substituted macrocyclic compounds and related methods of treatment” (Alkermes, Inc., priority 2020, dated 2024).

`Cc1ncnc2c1[C@H]1CC[C@H](CC1)OCC1[C@@H](NS(C)(=O)=O)CCCN1C(=O)CO2` (stereo in doubt) [Compound 27] displayed an EC50 in series [1] below 10 nM. In series [2], the hepatocyte CLint at 1 μM was below 1.9 µL/min/1e6 cells. Moreover, the “Extraction Ratio (ER)” value in series [3] is listed as below 0.22.
In the same order, the values of `O=C1COc2ncccc2[C@H]2CC[C@H](CC2)OCC2[C@@H](NS(=O)(=O)C(F)(F)F)CCCN12` (stereo in doubt) [Compound 91] are below 10 nM, 4.8 µL/min/1e6 cells and 0.42.
In the same order, the values of `Cc1ccnc2c1[C@H]1CC[C@H](CC1)OCC1[C@@H](NS(=O)(=O)C(F)(F)F)CCN1C(=O)CO2` (stereo in doubt) [Compound 94] are below 10 nM, below 1.9 µL/min/1e6 cells and below 0.22.
In the same order, the values of `O=C1COc2cccc(F)c2[C@H]2CC[C@H](CC2)OCC2[C@@H](NS(=O)(=O)C(F)(F)F)CCCN12` (stereo in doubt) [Compound 95] are below 10 nM, 3.3 µL/min/1e6 cells and 0.33.
The compound `O=C1COc2nccnc2[C@H]2CC[C@H](CC2)OCC2[C@@H](NS(=O)(=O)C(F)(F)F)CCCN12` (stereo in doubt) [Compound 98] yielded an EC50 in series [1] below 10 nM. Also, the hepatocyte CLint at 1 μM in series [2] is below 1.4 µL/min/1e6 cells. Moreover, the “Extraction Ratio (ER)” value in series [3] is reported as below 0.22.
Turning to `Cc1ncnc2c1[C@H]1CC[C@H](CC1)OCC1[C@@H](NS(=O)(=O)C(F)(F)F)CCCN1C(=O)CO2` (stereo in doubt) [Compound 99], the EC50 in series [1] is below 10 nM. The hepatocyte CLint at 1 μM in series [2] was below 1.4 µL/min/1e6 cells. Also, the “Extraction Ratio (ER)” value in series [3] is reported as below 0.22.
The matching figures for `O=C1COc2ccccc2[C@H]2CC[C@H](CC2)OCC2[C@@H](NS(=O)(=O)C(F)(F)F)CCN12` (stereo in doubt) [Compound 100]: below 10 nM, 2.5 µL/min/1e6 cells and 0.274.
In the same order, the values of `Cc1cccc2c1[C@H]1CC[C@H](CC1)OC[C@H]1[C@@H](NS(C)(=O)=O)CCN1C(=O)CO2` [Compound 20] are below 10 nM, 27 µL/min/1e6 cells and 0.80.
In the same order, the values of `CC(C)S(=O)(=O)N[C@H]1CCN2C(=O)COc3c(F)cc(F)cc3[C@H]3CC[C@H](CC3)OC[C@@H]12` [Compound 29] are below 10 nM, 15 µL/min/1e6 cells and 0.70.
`COC(=O)N1CCC[C@H](NS(C)(=O)=O)[C@@H]1CO[C@H]1CC[C@@H](c2ccccc2)CC1` [Reference Compound A, methyl (2R,3S)-3-((methylsulfonyl)amino)-2-(((cis-4-phenylcyclohexyl)oxy)methyl)-piperidine-l-carboxylate, reference compound] showed an EC50 in series [1] below 10 nM. For the same compound, the hepatocyte CLint at 1 μM in series [2] stood at 76 µL/min/1e6 cells. Further, in series [3], the “Extraction Ratio (ER)” value was 0.92.
In the same order, the values of `CC(C)(O)C(=O)N1CC[C@H](NS(C)(=O)=O)[C@@H]1Cc1cccc(-c2cc(F)cc(F)c2)c1F` [Reference Compound B, N-((2S,3S)-1-(2-hydroxy-2-methylpropanoy1)-2-((2,3′,5′-trifluorobipheny1-3-yl)methyl)pyrrolidin-3-yl)methanesulfonamide, reference compound] are 10 to 1000 nM, 1.5 µL/min/1e6 cells and 0.19.

As usually defined, the EC50 is the concentration at which the effect is half-maximal.
